pIC50, pKd: −log10 of the molar value. Read-outs that look alike come from different tables or passages of the source. Bounds are passed on as bounds.

The target in test [1] is T1, 5-LOX (Homo sapiens, UniProt P09917).
T1 construct: made in house
T1 sequence (P09917 1-674): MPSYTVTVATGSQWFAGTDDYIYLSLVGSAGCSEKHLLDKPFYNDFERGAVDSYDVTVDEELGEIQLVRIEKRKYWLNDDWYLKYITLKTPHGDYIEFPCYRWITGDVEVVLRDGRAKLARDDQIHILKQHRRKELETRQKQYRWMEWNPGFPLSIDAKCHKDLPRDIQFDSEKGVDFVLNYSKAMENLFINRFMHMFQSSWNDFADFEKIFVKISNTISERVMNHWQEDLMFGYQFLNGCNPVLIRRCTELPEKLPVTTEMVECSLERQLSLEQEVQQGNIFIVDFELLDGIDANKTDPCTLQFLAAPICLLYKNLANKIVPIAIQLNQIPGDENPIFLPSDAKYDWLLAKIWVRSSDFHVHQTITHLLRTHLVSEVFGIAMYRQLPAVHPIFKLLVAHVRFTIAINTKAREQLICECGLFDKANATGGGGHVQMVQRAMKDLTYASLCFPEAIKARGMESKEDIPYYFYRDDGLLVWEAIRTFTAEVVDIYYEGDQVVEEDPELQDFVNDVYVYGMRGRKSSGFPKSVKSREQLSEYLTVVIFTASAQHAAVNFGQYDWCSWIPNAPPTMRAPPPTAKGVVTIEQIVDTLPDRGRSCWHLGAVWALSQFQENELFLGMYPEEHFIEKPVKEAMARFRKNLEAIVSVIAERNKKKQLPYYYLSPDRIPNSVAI
The test can be described thus: Pseudoperoxidase activity assay. The class given is biochemical. The note with it: 10 µM inhibitor, 10 µM 13-HPODE, positive = loss of greater than 40% of product absorption at 234 nm. As to the method: The reductive properties of the inhibitors were determined by monitoring the pseudoperoxidase activity of lipoxygenase in the presence of the inhibitor and 13-(S)-hydroperoxyoctadecadienoic acid (13-HPODE). Activity is monitored by direct measurement of the product degradation following the decrease of absorbance at 234 nm using a Perkin-Elmer Lambda 40 UV/Vis spectrometer (50 mM Sodium Phosphate (pH 7.4), 0.3 mM CaCl2, 0.1 mM EDTA, 0.01% Triton X100, 10 µM 13-HPODE). All reactions were performed in 2 mL of buffer and constantly stirred with a rotating stir bar (23°C). Reaction was initiated by addition of 10 µM inhibitor (a 1 to 1 ratio to 13-HPODE), and a positive result for activity reflected a loss of greater than 40% of product absorption at 234 nm.

Test [2] deals with T2, human platelet 12-lipoxygenase (12-LOX) (Homo sapiens, UniProt P18054).
T2 construct: His6 (N); made in house
T2 sequence (P18054 1-663): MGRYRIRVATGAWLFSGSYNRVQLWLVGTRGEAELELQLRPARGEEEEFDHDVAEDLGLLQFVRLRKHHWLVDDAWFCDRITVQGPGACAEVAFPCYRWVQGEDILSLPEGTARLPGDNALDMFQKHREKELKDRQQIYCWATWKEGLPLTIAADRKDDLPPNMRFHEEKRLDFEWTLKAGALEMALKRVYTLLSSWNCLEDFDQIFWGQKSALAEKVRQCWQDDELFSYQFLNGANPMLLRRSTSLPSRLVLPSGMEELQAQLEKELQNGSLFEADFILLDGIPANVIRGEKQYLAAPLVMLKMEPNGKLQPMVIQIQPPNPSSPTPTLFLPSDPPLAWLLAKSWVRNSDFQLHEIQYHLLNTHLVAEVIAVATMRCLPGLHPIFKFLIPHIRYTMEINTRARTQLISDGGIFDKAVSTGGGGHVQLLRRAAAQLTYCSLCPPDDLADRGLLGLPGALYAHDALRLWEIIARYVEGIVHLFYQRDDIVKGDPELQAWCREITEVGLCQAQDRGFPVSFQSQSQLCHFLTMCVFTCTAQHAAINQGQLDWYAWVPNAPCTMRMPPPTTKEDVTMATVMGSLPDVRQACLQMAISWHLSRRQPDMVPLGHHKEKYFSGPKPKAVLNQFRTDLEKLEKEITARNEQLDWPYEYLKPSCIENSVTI
The test can be described thus: Lipoxygenase UV-based inhibitor assay, 12-LOX. The format is biochemical. Conditions: 10 µM AA, pH 8.0. As to the method:
(§1) Human leukocyte 5-lipoxygenase was expressed as a non-tagged protein and used as a crude ammonium sulfate protein fraction, as published previously.
(§2) Inhibitor potencies were evaluated through use of the standard UV-based inhibitor assay. The initial rates were determined by following the formation of the conjugated diene product at 234 nm (ε = 25,000 M^−1 cm^−1) with a Perkin-Elmer Lambda 40 UV/Vis spectrophotometer at one substrate concentration and varying inhibitor concentrations. All reactions were 2 mL in volume and constantly stirred using a magnetic stir bar at room temperature (23°C), with the enzyme specific buffer conditions outlined in Table 1. The substrate used for the various isozymes was arachidonic acid (AA) for 5-LOX, 12-LOX, and 15-LOX-2 and linoleic acid (LA) for 15-LOX-1, where concentrations were quantitatively determined by allowing the enzymatic reaction to go to completion. IC50 values were obtained by determining the initial rate at various inhibitor concentrations and plotting them against inhibitor concentration, followed by a hyperbolic saturation curve fit. The data used for the saturation curves were performed in duplicate or triplicate, depending on the quality of the data. […] Inhibitors were stored at −20°C in DMSO. […] The solvent isotope effect of the inhibitor IC50 was investigated utilizing the same conditions and methods as stated above. The pH of the buffered D2O was determined as reported previously.

Test [3] deals with T3, Human reticulocyte 15-lipoxygenase-1 (15-LOX-1) (Homo sapiens, UniProt P16050).
T3 construct: His6 (N); made in house
T3 sequence (P16050 1-662): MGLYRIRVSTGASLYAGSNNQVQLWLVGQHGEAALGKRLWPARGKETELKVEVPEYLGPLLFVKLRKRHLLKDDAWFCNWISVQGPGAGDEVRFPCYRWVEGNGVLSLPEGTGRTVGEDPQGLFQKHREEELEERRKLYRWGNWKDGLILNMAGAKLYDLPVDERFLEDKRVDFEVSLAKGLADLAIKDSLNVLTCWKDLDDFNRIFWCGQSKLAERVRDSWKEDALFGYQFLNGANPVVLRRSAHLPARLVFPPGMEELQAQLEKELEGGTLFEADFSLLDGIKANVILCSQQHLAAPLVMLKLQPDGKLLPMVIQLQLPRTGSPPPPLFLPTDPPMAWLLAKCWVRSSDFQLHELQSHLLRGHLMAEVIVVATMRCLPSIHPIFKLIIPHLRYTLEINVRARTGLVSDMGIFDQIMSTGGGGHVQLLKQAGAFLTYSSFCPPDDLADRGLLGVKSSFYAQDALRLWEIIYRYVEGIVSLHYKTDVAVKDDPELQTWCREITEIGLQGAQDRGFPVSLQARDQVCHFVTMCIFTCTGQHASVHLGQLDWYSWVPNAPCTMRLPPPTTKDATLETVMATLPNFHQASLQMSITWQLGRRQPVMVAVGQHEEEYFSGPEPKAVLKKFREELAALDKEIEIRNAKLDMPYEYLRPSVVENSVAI
The test is described as follows: Lipoxygenase UV-based inhibitor assay, 15-LOX-1. The format is biochemical. Conditions: 10 µM LA, pH 7.5. As to the method: as §1, §2

The target in test [4] is T4, Homo sapiens CYP51 (HsCYP51) (Homo sapiens, UniProt Q16850).
T4 construct: made in house; host or cells: E. coli
T4 sequence (Q16850 1-509): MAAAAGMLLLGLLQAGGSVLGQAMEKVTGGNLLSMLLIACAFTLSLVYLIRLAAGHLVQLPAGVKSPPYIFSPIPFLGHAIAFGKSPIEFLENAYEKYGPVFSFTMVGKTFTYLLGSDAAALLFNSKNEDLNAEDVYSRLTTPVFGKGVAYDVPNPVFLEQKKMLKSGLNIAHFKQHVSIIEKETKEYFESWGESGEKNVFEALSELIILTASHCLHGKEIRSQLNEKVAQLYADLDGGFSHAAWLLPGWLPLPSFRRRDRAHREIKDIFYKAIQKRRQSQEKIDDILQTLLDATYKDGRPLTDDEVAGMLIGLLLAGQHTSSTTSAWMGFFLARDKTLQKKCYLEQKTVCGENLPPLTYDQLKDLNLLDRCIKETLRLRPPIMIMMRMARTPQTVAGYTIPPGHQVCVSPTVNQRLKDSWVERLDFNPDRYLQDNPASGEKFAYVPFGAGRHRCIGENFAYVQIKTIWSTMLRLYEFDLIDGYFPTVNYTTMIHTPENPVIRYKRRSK
More on the design: method as in PMID 20149798. The note with it: ref [40]; read-out: Kd with HsCYP51, previously reported; cited from earlier work.

Test [5] addresses T5, Human leukocyte 5-lipoxygenase (Homo sapiens, UniProt P09917).
T5 construct: made in house
T5 sequence (P09917 1-674): T1 sequence (P09917 1-674)
Conditions: ref [12], [13]; read-out: 5-LOX IC50; cited from earlier work.

The target in test [6] is T6, human prostate epithelial 15-lipoxygenase-2 (15-LOX-2) (Homo sapiens, UniProt O15296).
T6 construct: His6 (N); made in house
T6 sequence (O15296 1-676): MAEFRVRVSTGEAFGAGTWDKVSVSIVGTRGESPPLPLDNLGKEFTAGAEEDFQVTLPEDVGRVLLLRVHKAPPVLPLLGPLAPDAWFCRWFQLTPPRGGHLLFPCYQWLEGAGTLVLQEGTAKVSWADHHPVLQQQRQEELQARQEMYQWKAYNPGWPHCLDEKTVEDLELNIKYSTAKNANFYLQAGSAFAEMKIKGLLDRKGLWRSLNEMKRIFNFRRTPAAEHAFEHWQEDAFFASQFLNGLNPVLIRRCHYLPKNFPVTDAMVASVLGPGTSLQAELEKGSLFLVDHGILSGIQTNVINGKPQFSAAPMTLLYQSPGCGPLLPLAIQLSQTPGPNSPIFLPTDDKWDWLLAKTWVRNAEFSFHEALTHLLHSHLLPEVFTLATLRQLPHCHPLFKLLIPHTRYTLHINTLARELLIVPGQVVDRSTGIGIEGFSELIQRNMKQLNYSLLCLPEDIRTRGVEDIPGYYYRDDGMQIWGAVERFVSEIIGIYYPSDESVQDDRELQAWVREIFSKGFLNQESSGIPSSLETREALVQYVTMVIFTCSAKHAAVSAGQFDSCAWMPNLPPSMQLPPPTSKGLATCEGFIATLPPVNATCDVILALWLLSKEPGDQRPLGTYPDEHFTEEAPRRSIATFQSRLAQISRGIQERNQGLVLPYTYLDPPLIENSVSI
The test can be described thus: Lipoxygenase UV-based inhibitor assay, 15-LOX-2. The class given is biochemical. Conditions: 30 µM AA, pH 7.5. How it is done: as §1, §2

Test [7] deals with LTB4 synthesis in whole human blood. The test can be described thus: Human blood LTB4 inhibition assay. The format is cell-based. The note with it: Homo sapiens, compounds at 10 µM, calcium ionophore stimulated, ELISA; error in parentheses. How it is done:
Whole human blood was obtained from healthy volunteers from within the Student Health Center. These studies were approved by the UCSC Institutional Review Board (IRB) and informed consent was obtained from all donors before blood draw. The whole blood was dispensed in 150 µL samples followed by addition of inhibitor or control (vehicle, DMSO), and incubated for 15 min at 37°C. The mixture was then stimulated by introduction of the calcium ionophore, […], (freshly diluted from a 50 mM DMSO stock to 1.5 mM in Hanks balanced salt solution), and incubated for 30 min at 37°C. Samples were then centrifuged at 1,500 rpm (300 g) for 10 min at 4°C and the supernatant diluted between 20 and 50-fold (batch dependent) for LTB4 detection, using an ELISA detection kit (Cayman Chemicals Inc.).
Background: In an ELISA, binding on a coated surface is turned into a signal by an enzyme label.

The target in test [8] is T5, Human leukocyte 5-lipoxygenase. The test is described as follows: Lipoxygenase UV-based inhibitor assay, 5-LOX. The class given is biochemical. The note with it: UV-based assay, 10 µM AA, pH 7.3, crude enzyme; error = SD; read-out: 5-LOX IC50. How it is done: as §1, §2

For `CC(c1cc2ccccc2s1)N(O)C(N)=O` (stereo not shown) [zileuton, reference compound], the entries for the “Reductive activity (pseudoperoxidase activity)” value in test [1] and in test [1] (listed as Zilueton) were “reductive” and “Yes”, respectively. The values for the pIC50 in test [2] and in test [3] were below 3.82 and below 4.30, respectively.

Regarding `Clc1ccc(COC(Cn2ccnc2)c2ccc(Cl)cc2Cl)cc1` (stereo not shown) [econazole], in test [4], the pKd (commonly −log10 of the Kd, conventionally taken in molar units) was above 7.00.

Turning to `CCC(C)n1ncn(-c2ccc(N3CCN(c4ccc(OCC5COC(Cn6cncn6)(c6ccc(Cl)cc6Cl)O5)cc4)CC3)cc2)c1=O` (stereo not shown) [itraconazole], the pIC50 (usually the negative decadic logarithm of the IC50, by convention in mol/L) in test [5] was below 4.30.

As for `Clc1ccccc1C(c1ccccc1)(c1ccccc1)n1ccnc1` [clotrimazole], the pKd in test [4] is above 7.00.

As to `Clc1ccc(COC(Cn2ccnc2)c2ccc(Cl)cc2Cl)c(Cl)c1` (stereo not shown) [miconazole], the pKd in test [4] is above 7.00.

On to `Cc1ccc(CNc2ccc(N3CCCCC3)cc2)cc1` [Compound 15], for which the pIC50 is below 4.30 in test [6], 6.22 in test [8], below 4.30 in test [2] and below 3.82 in test [3]. The inhibition (usually the drop in the measured response relative to a control, in per cent) at 10 µM in test [7] was below 10%.

These data come from article PMC3691235, “Discovery of a Novel Dual Fungal CYP51/Human 5-Lipoxygenase Inhibitor: Implications for Anti-Fungal Therapy” (PLoS ONE, 2013).
